Assay results taken from PubChem BioAssay (NCI).
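Exposure lasted 48 hours, with cells grown in 96-well plates and compounds tested at five concentrations. TGI denotes the concentration required for complete inhibition of growth.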

Assays:
Experiment in all cases: NCI anticancer screen, dose series, 48 h
[1] = system: NCI-H460 lung
[2] = system: UO-31 renal
[3] = system: M14 melanoma
[4] = system: A549 NSCLC
[5] = system: MALME-3M melanoma
[6] = system: SF-268 CNS
[7] = system: IGROV1 ovarian
[8] = system: T-47D breast
[9] = system: HCT-15 colon
[10] = system: HT29 colon
[11] = system: SNB-19 CNS
[12] = system: COLO 205 colon
[13] = system: HCT-116 colon
[14] = system: HOP-62 NSCLC
[15] = system: CCRF-CEM leukemia
[16] = system: SK-MEL-5 melanoma
[17] = system: MDA-N
[18] = system: NCI-H226 lung
[19] = system: SK-OV-3 ovarian
[20] = system: 786-0 renal
[21] = system: SF-539 CNS
[22] = system: UACC-257 melanoma
[23] = system: RXF 393 renal
[24] = system: HCC-2998 colon
[25] = system: HS 578T breast
[26] = system: SR leukemia
[27] = system: MCF7 breast
[28] = system: NCI-H23 lung
[29] = system: NCI-H522 lung
[30] = system: ACHN renal
[31] = system: SF-295 CNS
[32] = system: DU-145 prostate
[33] = system: UACC-62 melanoma
[34] = system: MDA-MB-435
[35] = system: SK-MEL-28 melanoma
[36] = system: HL-60(TB) leukemia
[37] = system: KM12 colon
[38] = system: MDA-MB-231 breast
[39] = system: SN12C renal
[40] = system: LOX IMVI melanoma
[41] = system: SK-MEL-2 melanoma
[42] = system: PC-3 prostate
[43] = system: CAKI-1 renal
[44] = system: SNB-75 CNS
[45] = system: OVCAR-5 ovarian
[46] = system: EKVX NSCLC
[47] = system: NCI/ADR-RES ovarian
[48] = system: TK-10 renal
[49] = system: OVCAR-3 ovarian
[50] = system: SW-620 colon
[51] = system: A498 renal
[52] = system: OVCAR-8 ovarian
[53] = system: OVCAR-4 ovarian
[54] = system: RPMI-8226 leukemia
[55] = system: K-562 leukemia
[56] = system: MOLT-4 leukemia
[57] = system: BT-549 breast
[58] = system: U251 CNS
[59] = system: HOP-92 NSCLC

Compound: CCOC(=O)N1c2ccccc2C(C)=CC(C)C1C (stereo not given)
- TGI [1]: > 100 µM
- TGI [2]: > 100 µM
- TGI [3]: 80 µM
- TGI [4]: > 100 µM
- TGI [5]: > 100 µM
- TGI [6]: > 100 µM
- TGI [7]: > 100 µM
- TGI [8]: > 100 µM
- TGI [9]: > 100 µM
- TGI [10]: 40.3 µM
- TGI [11]: > 100 µM
- TGI [12]: > 100 µM
- TGI [13]: 40.1 µM
- TGI [14]: > 100 µM
- TGI [15]: > 100 µM
- TGI [16]: 39.6 µM
- TGI [17]: 27.3 µM
- TGI [18]: 80.1 µM
- TGI [19]: > 100 µM
- TGI [20]: > 100 µM
- TGI [21]: 42.7 µM
- TGI [22]: 88.5 µM
- TGI [23]: 51 µM
- TGI [24]: > 100 µM
- TGI [25]: 82.2 µM
- TGI [26]: 55.1 µM
- TGI [27]: > 100 µM
- TGI [28]: 60.1 µM
- TGI [29]: 89.6 µM
- TGI [30]: > 100 µM
- TGI [31]: 68.3 µM
- TGI [32]: > 100 µM
- TGI [33]: > 100 µM
- TGI [34]: 15.8 µM
- TGI [35]: > 100 µM
- TGI [36]: 57.2 µM
- TGI [37]: 83.4 µM
- TGI [38]: 78.4 µM
- TGI [39]: > 100 µM
- TGI [40]: 63.7 µM
- TGI [41]: > 100 µM
- TGI [42]: > 100 µM
- TGI [43]: 74.3 µM
- TGI [44]: 69 µM
- TGI [45]: > 100 µM
- TGI [46]: 99 µM
- TGI [47]: > 100 µM
- TGI [48]: 51 µM
- TGI [49]: 51.1 µM
- TGI [50]: > 100 µM
- TGI [51]: 96.5 µM
- TGI [52]: 44.1 µM
- TGI [53]: > 100 µM
- TGI [54]: > 100 µM
- TGI [55]: > 100 µM
- TGI [56]: > 100 µM

Compound: CC(C)(O)C1COC2=C1C(=O)c1ccccc1C2=O (stereo not given)
- TGI [1]: > 100 µM
- TGI [2]: > 100 µM
- TGI [3]: > 100 µM
- TGI [4]: > 100 µM
- TGI [6]: 77.1 µM
- TGI [7]: > 100 µM
- TGI [8]: > 100 µM
- TGI [9]: > 100 µM
- TGI [10]: > 100 µM
- TGI [11]: > 100 µM
- TGI [12]: > 100 µM
- TGI [13]: 66.9 µM
- TGI [15]: > 100 µM
- TGI [16]: 57.4 µM
- TGI [17]: 33.3 µM
- TGI [18]: > 100 µM
- TGI [57]: 42.9 µM
- TGI [58]: > 100 µM
- TGI [19]: > 100 µM
- TGI [59]: > 100 µM
- TGI [20]: > 100 µM
- TGI [21]: > 100 µM
- TGI [22]: > 100 µM
- TGI [24]: > 100 µM
- TGI [25]: > 100 µM
- TGI [27]: 40.1 µM
- TGI [28]: 38.8 µM
- TGI [29]: > 100 µM
- TGI [30]: > 100 µM
- TGI [31]: > 100 µM
- TGI [32]: 43.5 µM
- TGI [33]: 42.9 µM
- TGI [34]: 44.6 µM
- TGI [35]: 46 µM
- TGI [36]: 44.9 µM
- TGI [37]: > 100 µM
- TGI [38]: > 100 µM
- TGI [39]: 77.8 µM
- TGI [40]: 41.9 µM
- TGI [41]: 88.6 µM
- TGI [42]: > 100 µM
- TGI [43]: > 100 µM
- TGI [44]: 82 µM
- TGI [45]: 54 µM
- TGI [46]: > 100 µM
- TGI [47]: 62.1 µM
- TGI [49]: 57.8 µM
- TGI [50]: 50.4 µM
- TGI [51]: > 100 µM
- TGI [52]: 84.6 µM
- TGI [53]: > 100 µM
- TGI [54]: > 100 µM
- TGI [55]: > 100 µM
- TGI [56]: 71.2 µM
